Assay results taken from patent US20120095029A1, “IPP COMPLEX AS MARKER FOR ERLOTINIB TREATMENT” (Hoffmann-La Roche Inc., priority 2010, published 2012).
Structures can show the parent of a compound that is named as a salt.

Experiments:
H358 cells = experiment: Testing EMT transition on H358 NSCLC cell line (TGFbeta3 treatment, western blot); assay type: cell-based, human; conditions: 10 ng/mL TGFbeta3 plus compound 5 μM; for Level of E-cadherin: up to 13 days
Experimental: Cell culture medium was renewed every 3 days. Cell lysis was performed in PBS containing 1% NP-40 and protease inhibitors. After clearing by centrifugation at 12,000 g for 15 min at 4° C., proteins were separated by SDS-PAGE and processed for western blot analysis. Images were acquired using a compact digital camera (Luminescent Image Analyzer: Fujifilm, Tokyo, Japan) and quantified with ImageQuant TL (GE Healthcare, Waukesha, Wis., USA).

ILK = ILK (Homo sapiens, UniProt Q13418); conditions: H292 cell lysate preincubated with free compound (0-400 μM), then beads with immobilized compound
PINCH = PINCH (Homo sapiens, UniProt P48059); conditions: H292 cell lysate preincubated with free compound (0-400 μM), then beads with immobilized compound
alpha-parvin = alpha-parvin (Homo sapiens, UniProt Q9NVD7); conditions: H292 cell lysate preincubated with free compound (0-400 μM), then beads with immobilized compound
NSCLC patients [1] = conditions: single agent; patients for whom standard therapy for advanced disease has failed; cited from earlier work
NSCLC patients [2] = conditions: unselected patient population; cited from earlier work
patients with NSCLC = conditions: second line after cisplatin-based first-line regimens failed; ECOG 0, 1 or 2; cited from earlier work
NSCLC = conditions: second line therapy of NSCLC; cited from earlier work

PINCH, sequence (P48059 2-325): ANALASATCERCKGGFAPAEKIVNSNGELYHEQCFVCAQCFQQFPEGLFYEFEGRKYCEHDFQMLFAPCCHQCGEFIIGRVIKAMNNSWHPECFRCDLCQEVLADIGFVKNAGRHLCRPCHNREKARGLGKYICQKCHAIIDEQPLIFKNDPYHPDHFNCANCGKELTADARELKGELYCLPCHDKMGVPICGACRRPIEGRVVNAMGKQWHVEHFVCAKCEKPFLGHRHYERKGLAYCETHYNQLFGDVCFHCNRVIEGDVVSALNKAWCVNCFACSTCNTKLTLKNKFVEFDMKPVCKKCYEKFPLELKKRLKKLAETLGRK
PINCH, sequence (Q13418 whole entry partner): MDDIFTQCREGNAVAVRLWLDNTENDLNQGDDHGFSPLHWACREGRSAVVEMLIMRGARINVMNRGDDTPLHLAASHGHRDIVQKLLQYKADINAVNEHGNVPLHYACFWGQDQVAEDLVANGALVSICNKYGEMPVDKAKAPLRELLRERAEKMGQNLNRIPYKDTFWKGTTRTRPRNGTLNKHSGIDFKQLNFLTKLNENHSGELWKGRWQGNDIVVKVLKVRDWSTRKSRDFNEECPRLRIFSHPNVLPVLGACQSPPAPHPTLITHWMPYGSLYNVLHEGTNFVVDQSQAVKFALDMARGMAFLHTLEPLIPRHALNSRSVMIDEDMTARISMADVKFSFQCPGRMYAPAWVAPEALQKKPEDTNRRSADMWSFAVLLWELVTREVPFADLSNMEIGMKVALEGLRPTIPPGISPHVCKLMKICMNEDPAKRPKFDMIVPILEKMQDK
PINCH, sequence (Q9NVD7 2-372 partner): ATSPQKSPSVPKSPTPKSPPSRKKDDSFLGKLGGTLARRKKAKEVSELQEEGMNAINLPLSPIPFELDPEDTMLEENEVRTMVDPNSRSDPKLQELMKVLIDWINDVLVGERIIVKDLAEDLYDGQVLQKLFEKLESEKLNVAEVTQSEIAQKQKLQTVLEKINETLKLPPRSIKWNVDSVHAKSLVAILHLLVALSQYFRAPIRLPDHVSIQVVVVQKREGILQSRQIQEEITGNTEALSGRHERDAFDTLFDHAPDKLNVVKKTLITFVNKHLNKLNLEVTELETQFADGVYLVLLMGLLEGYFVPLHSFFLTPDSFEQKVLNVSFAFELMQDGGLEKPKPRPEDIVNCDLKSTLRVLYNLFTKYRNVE
alpha-parvin, sequence (Q9NVD7 2-372 limits assumed): as the sequence (Q9NVD7 2-372 partner) above
alpha-parvin, sequence (Q13418 whole entry partner): as the sequence (Q13418 whole entry partner) above
alpha-parvin, sequence (P48059 2-325 partner limits assumed): as the sequence (P48059 2-325) above
ILK, sequence (Q13418 whole entry): as the sequence (Q13418 whole entry partner) above

SMILES | ILK expression level (H358 cells) | PINCH expression level (H358 cells) | Level of E-cadherin (H358 cells) | Signal Reduction (%) ILK (ILK) | Signal Reduction (%) PINCH (PINCH) | Signal Reduction (%) alpha-parvin (alpha-parvin) | Survival of NSCLC patients (NSCLC patients [1]) | Clinical benefit (NSCLC patients [2]) | Survival (patients with NSCLC) | Efficacy compared with docetaxel (NSCLC) | Side effects compared with docetaxel (NSCLC)
C#Cc1cccc(Nc2ncnc3cc(OCCOC)c(OCCOC)cc23)c1 [Erlotinib hydrochloride, erlotinib hydrochloride] | do not change | do not change | remained unchanged | 77.3% | 87.7% | 79.5% | significantly prolongs and improves the survival | – | – | – | –
COc1cc2ncnc(Nc3ccc(F)c(Cl)c3)c2cc1OCCCN1CCOCC1 [Gefitinib, gefitinib] | not so pronounced | not so pronounced | fails to inhibit the TGFb3-mediated decrease of E-cadherin levels | – | 0.0% | 0.0% | – | does not seem to confer clinical benefit | – | – | –
CC(=O)O[C@@]12CO[C@@H]1C[C@H](O)[C@@]1(C)C(=O)[C@H](O)C3=C(C)[C@@H](OC(=O)[C@H](O)[C@@H](NC(=O)OC(C)(C)C)c4ccccc4)C[C@@](O)([C@@H](OC(=O)c4ccccc4)[C@H]21)C3(C)C [docetaxel] | – | – | – | – | – | – | – | – | improved survival | – | –
Nc1nc2[nH]cc(CCc3ccc(C(=O)N[C@@H](CCC(=O)O)C(=O)O)cc3)c2c(=O)[nH]1 [pemetrexed] | – | – | – | – | – | – | – | – | – | clinically equivalent efficacy | significantly fewer side effects
